Measured values: ChEMBL document CHEMBL1201862, “PubChem BioAssay data set” (2004)
The source made the active and inactive calls.

Tests used:
[1] = target: T1, High affinity choline transporter 1 (Homo sapiens, UniProt Q9GZV3); assay: human choline transporter potentiators, potency – cell-based, 10-point CRC, membrane potential dye, dose response (AID 602376); format: functional
T1 sequence (Q9GZV3 whole entry): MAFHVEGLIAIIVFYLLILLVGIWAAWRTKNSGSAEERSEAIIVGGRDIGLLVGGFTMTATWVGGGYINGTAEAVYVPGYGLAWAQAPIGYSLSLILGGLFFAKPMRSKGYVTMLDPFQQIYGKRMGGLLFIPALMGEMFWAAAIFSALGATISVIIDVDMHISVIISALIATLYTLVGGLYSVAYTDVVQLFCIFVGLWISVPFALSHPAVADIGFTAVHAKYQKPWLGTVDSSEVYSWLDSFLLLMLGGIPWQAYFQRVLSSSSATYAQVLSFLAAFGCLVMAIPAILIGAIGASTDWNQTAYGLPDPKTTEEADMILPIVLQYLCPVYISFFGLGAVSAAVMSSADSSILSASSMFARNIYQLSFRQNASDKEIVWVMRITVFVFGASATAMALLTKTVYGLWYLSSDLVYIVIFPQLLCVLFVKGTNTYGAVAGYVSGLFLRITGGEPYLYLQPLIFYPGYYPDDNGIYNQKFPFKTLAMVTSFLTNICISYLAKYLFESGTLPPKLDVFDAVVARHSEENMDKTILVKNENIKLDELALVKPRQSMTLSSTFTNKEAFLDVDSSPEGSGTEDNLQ

Troponin, cardiac muscle = Troponin, cardiac muscle (Homo sapiens, UniProt P19429+P45379+P63316); assay: Fluorescence-based biochemical high throughput dose response assay for activators of the calcium sensitivity of cardiac Regulated Thin Filaments (RTF). [Related pubchem assays (depositor defined):AID493008, AID493018, AID504382, AID504383]; format: protein-complex assay
Orexin receptor type 2 [2] = target: T2, Orexin receptor type 2 (Homo sapiens, UniProt O43614); assay: Counterscreen assay for antagonists of the orexin 1 receptor (OX1R; HCRTR1): Homogeneous Time Resolved Fluorescence (HTRF)-based cell-based dose response assay for antagonists of the orexin 2 receptor (OX2R; HCRTR2), run by assay provider.; format: functional
T2 sequence (O43614 whole entry): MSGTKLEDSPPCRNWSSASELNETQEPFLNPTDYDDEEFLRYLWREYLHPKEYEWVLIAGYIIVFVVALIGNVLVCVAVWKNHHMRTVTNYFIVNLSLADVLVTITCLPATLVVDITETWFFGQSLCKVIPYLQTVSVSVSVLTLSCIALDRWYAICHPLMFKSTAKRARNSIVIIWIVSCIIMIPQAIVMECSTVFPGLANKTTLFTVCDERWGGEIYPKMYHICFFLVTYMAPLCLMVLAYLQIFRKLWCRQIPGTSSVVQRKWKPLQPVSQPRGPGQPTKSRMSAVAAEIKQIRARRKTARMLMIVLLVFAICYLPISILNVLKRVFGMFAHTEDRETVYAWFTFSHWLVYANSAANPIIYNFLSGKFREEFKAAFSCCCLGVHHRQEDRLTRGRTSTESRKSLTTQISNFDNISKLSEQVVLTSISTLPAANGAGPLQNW

[3] = (§1) Counterscreen for antagonists of the orexin 1 receptor (OX1R; HCRTR1): Fluorescence-based cell-based high throughput dose response assay to identify antagonists of the parental CHO cell line. [Related pubchem assays (depositor defined):AID434989, AID435008, AID463079, AID485270, AID492963, AID492964, AID492965, AID493232, AID504699, AID504701]; format: functional
[4] = target: T3, Orexin/Hypocretin receptor type 1 (Homo sapiens, UniProt O43613); assay: (§2) Fluorescence-based cell-based high throughput dose response assay for antagonists of the orexin 1 receptor (OX1R; HCRTR1). [Related pubchem assays (depositor defined):AID434989, AID435008, AID463079, AID485270, AID492963, AID492964, AID492965, AID493232, AID504717, AID504718]; format: functional
T3 sequence (O43613 whole entry): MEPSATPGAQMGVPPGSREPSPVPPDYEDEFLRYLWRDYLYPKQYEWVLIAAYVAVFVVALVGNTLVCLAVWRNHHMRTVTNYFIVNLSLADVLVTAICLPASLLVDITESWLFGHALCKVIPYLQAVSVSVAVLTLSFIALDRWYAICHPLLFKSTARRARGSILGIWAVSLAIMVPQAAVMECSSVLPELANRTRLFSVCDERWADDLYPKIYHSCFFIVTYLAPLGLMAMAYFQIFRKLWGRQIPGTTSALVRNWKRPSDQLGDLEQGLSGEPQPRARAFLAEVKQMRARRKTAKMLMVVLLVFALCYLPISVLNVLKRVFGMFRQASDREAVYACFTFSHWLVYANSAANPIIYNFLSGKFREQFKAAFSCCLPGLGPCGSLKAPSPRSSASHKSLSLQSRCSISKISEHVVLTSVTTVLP

[5] = target: T3, Orexin/Hypocretin receptor type 1; assay: as §2, with “Homogeneous Time Resolved Fluorescence (HTRF)-based” for “Fluorescence-based”; format: functional
Orexin receptor type 2 [6] = target: T2, Orexin receptor type 2; assay: Counterscreen assay for antagonists of the orexin 1 receptor (OX1R; HCRTR1): Fluorescence-based cell-based dose response assay for antagonists of the orexin 2 receptor (OX2R; HCRTR2), run by assay provider.; format: functional
CHO-K1 = assay: as §1, with “Homogeneous time resolved fluorescence (HTRF)-based” for “Fluorescence-based”, “cell-based” for “cell-based high throughput”, “CHO-K1” for “CHO”; format: functional; conditions: Cricetulus griseus;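 further: potency for inhibition of ATP-stimulated IP1 production as antagonists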
[7] = target: DNA dC->dU-editing enzyme APOBEC-3G (Homo sapiens, UniProt Q9HC16); assay: inhibition of APOBEC3G ssDNA deamination – biochemical, fluorescence, single-stranded DNA substrate, SAR follow-up (AID 602136); format: functional; conditions: read-out: IC50_Mean
Chain of DNA dC->dU-editing enzyme APOBEC-3G (Q9HC16 whole entry): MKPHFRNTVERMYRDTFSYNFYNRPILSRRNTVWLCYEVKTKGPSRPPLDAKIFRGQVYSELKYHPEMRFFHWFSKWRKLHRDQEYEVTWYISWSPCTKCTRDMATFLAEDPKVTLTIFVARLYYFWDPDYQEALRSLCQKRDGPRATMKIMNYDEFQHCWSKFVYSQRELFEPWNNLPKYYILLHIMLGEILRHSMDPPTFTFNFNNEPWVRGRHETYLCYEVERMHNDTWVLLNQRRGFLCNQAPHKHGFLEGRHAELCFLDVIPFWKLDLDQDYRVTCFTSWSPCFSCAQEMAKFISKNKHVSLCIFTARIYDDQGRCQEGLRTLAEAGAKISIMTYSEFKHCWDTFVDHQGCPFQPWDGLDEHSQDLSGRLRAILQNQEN

[8] = target: DNA dC->dU-editing enzyme APOBEC-3A (Homo sapiens, UniProt P31941); assay: SAR analysis of small molecule inhibitors of APOBEC3A DNA Deaminase via a fluorescence-based single-stranded DNA deaminase assay.; format: functional; conditions: read-out: IC50_Mean
Chain of DNA dC->dU-editing enzyme APOBEC-3A (P31941 whole entry, the tested form may be a part): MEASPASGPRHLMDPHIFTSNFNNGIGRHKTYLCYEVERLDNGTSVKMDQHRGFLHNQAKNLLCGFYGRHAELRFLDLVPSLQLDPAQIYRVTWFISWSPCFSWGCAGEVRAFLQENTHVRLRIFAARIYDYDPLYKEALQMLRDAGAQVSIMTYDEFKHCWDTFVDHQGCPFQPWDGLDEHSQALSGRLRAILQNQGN

CHO = CHO cell viability loss, potency – luminescence, cytotoxicity control for TLR9-MyD88 binding inhibitor project, dose response (AID 588339); format: functional, cell-based, hamster; conditions: Cricetulus griseus;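 further: CHO cells stably coexpressing TLR9 and MyD88 fusions from primary screen; compound exposure lasted 48 hours before viability readout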
Beta Lactamase = Beta Lactamase (Pseudomonas aeruginosa, UniProt Q932Y6); assay: BLA reporter interference, concentration series – BLA reporter cells, FRET fluorescence, artefact control for TLR9-MyD88 binding inhibitor project, dose response (AID 588341); format: cell-based;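 further: cell based assay in CHO-K1 cells stably expressing beta-lactamase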
Chain of Beta Lactamase (Q932Y6 whole entry): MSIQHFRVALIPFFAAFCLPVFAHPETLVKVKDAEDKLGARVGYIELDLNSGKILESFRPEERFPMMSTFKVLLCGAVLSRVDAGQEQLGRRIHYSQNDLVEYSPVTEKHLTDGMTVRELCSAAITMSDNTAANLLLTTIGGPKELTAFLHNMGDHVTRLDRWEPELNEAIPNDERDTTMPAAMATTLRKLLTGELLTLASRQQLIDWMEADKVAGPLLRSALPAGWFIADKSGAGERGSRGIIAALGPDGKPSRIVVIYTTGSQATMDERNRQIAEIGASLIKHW

[9] = target: T4, Sentrin-specific protease 8 (Homo sapiens, UniProt Q96LD8); assay: inhibition of human SENP8 cleavage activity – biochemical, luminescence, SAR follow-up (AID 504501); format: functional
T4 sequence (Q96LD8 whole entry): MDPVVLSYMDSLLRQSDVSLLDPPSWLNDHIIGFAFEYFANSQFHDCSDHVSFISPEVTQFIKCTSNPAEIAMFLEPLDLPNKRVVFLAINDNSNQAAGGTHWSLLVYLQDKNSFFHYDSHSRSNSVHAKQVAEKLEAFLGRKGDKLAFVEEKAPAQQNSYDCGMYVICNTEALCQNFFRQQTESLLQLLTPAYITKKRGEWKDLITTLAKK

[10] = target: T5, Sentrin-specific protease 7 (Homo sapiens, UniProt Q9BQF6); assay: inhibition of human SENP7 cleavage activity – biochemical, luminescence, SAR follow-up (AID 504497); format: functional
T5 sequence (Q9BQF6 whole entry): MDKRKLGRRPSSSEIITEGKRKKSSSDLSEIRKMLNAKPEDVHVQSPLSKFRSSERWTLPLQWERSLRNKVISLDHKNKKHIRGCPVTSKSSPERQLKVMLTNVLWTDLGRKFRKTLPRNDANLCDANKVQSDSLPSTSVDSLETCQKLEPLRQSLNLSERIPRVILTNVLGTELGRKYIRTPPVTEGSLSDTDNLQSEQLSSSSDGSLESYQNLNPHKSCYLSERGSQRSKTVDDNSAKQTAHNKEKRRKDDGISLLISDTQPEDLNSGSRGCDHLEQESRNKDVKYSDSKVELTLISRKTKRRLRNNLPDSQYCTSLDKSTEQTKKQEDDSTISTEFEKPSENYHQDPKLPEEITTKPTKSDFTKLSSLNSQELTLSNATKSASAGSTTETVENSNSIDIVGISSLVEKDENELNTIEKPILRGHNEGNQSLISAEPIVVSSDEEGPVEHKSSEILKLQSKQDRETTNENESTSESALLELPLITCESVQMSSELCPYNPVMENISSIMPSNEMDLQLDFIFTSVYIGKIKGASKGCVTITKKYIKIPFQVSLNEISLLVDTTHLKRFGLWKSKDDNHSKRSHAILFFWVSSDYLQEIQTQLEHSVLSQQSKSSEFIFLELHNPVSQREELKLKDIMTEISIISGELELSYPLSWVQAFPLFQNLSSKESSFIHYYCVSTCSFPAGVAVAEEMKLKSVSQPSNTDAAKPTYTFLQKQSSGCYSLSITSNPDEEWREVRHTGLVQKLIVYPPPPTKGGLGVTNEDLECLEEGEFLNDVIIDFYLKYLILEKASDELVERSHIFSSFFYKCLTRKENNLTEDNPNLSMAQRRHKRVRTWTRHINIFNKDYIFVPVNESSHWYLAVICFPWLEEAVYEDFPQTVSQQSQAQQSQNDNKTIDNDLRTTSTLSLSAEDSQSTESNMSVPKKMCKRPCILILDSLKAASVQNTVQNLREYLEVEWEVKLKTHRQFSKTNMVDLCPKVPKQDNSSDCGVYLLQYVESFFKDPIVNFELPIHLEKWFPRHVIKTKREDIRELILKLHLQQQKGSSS

[11] = target: T6, Sentrin-specific protease 6 (Homo sapiens, UniProt Q9GZR1); assay: SAR Analysis of small molecule inhibitors of Sentrin-specific protease 6 (SENP6) using a Luminescent assay. [Related pubchem assays (depositor defined):AID2582, AID2599]; format: functional
T6 sequence (Q9GZR1 whole entry): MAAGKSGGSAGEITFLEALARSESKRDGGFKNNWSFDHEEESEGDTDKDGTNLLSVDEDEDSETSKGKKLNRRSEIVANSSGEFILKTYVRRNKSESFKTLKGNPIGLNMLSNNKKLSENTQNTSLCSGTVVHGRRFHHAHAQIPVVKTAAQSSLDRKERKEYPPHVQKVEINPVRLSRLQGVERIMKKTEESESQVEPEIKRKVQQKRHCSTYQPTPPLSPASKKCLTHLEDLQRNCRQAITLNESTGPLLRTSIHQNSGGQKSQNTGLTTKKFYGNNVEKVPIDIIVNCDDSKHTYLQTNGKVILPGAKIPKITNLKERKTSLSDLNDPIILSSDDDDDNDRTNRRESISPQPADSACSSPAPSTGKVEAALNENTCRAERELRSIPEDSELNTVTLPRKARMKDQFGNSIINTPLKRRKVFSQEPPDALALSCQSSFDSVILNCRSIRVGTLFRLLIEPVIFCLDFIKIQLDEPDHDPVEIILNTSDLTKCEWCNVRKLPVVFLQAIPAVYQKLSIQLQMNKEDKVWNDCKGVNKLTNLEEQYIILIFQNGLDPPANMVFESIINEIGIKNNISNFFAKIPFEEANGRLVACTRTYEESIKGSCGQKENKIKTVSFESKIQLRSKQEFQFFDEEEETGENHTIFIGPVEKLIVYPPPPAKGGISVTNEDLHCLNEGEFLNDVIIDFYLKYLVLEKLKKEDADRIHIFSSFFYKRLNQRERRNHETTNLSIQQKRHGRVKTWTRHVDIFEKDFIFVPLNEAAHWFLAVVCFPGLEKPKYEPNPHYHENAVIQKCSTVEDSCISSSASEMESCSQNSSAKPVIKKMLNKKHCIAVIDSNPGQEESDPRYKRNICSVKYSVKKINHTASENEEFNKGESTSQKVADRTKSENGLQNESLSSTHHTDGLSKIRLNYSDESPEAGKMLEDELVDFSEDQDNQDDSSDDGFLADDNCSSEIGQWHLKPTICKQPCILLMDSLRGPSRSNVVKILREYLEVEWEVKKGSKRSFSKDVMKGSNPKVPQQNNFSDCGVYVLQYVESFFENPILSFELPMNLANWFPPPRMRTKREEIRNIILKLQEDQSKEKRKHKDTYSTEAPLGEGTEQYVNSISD

Caspase-3 = target: T7, Caspase-3 (Homo sapiens, UniProt P42574); assay: SAR Analysis of small molecule inhibitors of Sentrin-specific proteases (SENPs) using a Caspase-3 Selectivity assay. [Related pubchem assays (depositor defined):AID2540, AID2599, AID434973, AID489001]; format: functional
T7 sequence (P42574 whole entry): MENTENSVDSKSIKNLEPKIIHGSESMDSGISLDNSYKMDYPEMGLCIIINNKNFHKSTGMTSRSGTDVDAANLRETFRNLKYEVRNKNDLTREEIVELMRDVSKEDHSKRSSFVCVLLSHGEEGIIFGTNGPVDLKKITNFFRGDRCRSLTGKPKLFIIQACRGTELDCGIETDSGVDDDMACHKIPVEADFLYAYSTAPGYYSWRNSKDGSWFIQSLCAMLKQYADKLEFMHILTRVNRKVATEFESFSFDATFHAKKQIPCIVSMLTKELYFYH

[12] = target: T8, Endoribonuclease toxin MazF (Escherichia coli K-12, UniProt P0AE70); assay: MazEF toxin-antitoxin RNase activation – biochemical, fluorescence, single-stranded RNA substrate, SAR follow-up (AID 588603); format: functional
T8 sequence (P0AE70 whole entry): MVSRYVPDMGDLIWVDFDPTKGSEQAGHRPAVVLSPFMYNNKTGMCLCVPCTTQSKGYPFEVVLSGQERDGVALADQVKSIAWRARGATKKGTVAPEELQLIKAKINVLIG

[13] = target: T8, Endoribonuclease toxin MazF; assay: substrate-only fluorescence increase artefacts – biochemical, single-stranded RNase substrate, counter-screen for MazEF activator project, dose response (AID 588502); format: functional
[14] = target: T8, Endoribonuclease toxin MazF; assay: SAR analysis of small molecule activators of the MazEF TA System via a fluorescence-based single-stranded RNase assay counterscreen. [Related pubchem assays (depositor defined):AID504720, AID504743]; format: functional
MEF = assay: SAR analysis of small molecule cytotoxicity of MazEF TA System activators in embryonic fibroblast (MEF) cells. [Related pubchem assays (depositor defined):AID504720, AID504743]; format: functional; conditions: Mus musculus
[15] = target: T8, Endoribonuclease toxin MazF; assay: activation of MazEF endoribonuclease cleavage – biochemical, fluorescence, single-stranded RNA substrate, uHTS hits, dose response (AID 588481); format: functional
[16] = THP-1 cell cytotoxicity, cytotoxicity control, set 6 (AID 602433); format: functional; conditions: Mycobacterium tuberculosis
[17] = viability loss in Vero cells – cell-based, purified and synthesized samples, set 8, cytotoxicity control for M. tuberculosis inhibitor project (AID 602431); format: functional; conditions: Mycobacterium tuberculosis

For CC(C)CN1CCN(Cc2cccn2-c2ccc(Cl)cn2)CC1CCO (stereo not drawn), the EC50 [1] was 8.24 µM (active) and the EC50 (Troponin, cardiac muscle) was > 71.5 µM (inactive).

In the case of CCOc1ccccc1N1CCN(C(=O)c2ccc(S(=O)(=O)Nc3ccccc3)cc2)CC1, the IC50 (Orexin receptor type 2 [2]) is reported as > 50 µM (inactive), the IC50 [3] is reported as 25.6 µM (inactive) and the IC50 [4] is reported as 15.1 µM (inactive). The IC50 [5] was 1.12 µM (active), the IC50 (Orexin receptor type 2 [6]) was 42.5 µM (inactive) and the IC50 (CHO-K1) was > 66.2 µM (inactive).

In the case of O=C(CCN1CCSC1=O)Nc1cc(Cl)ccc1N1CCOCC1, the IC50 [7] is reported as > 99 µM (inactive) and the IC50 [8] is reported as > 99 µM (inactive).

For CCN(CC)c1ccc(/C=C/C(=O)C2C(=O)C=C(C)OC2=O)cc1 (stereo not drawn), the IC50 (CHO) was > 49.7 µM (inactive) and the IC50 (Beta Lactamase) was 4.88 µM (active).

In the case of Oc1ccc(Cl)cc1/C=N/Nc1cc(N2CCCC2)nc(N2CCCC2)n1, the IC50 [9] is reported as > 99 µM (inactive), the IC50 [10] is reported as > 99 µM (inactive) and the IC50 [11] is reported as > 99 µM (inactive). The IC50 (Caspase-3) was > 99 µM (inactive).

With N=c1c2c(ncn1CCCO)Oc1cc(O)ccc1C2c1ccccc1 (stereo not drawn) the EC50 [12] was 6.2 µM (active), the EC50 [13] was > 99 µM (inactive) and the EC50 [14] was 78.8 µM (inactive). For the same compound, the CC50 (MEF) was > 99 µM (inactive) and the EC50 [15] was 6.82 µM (active).

With CC1CCCN(c2c(NCc3ccc(C(=O)N4CC=C(c5ccccc5)CC4)cc3)c(=O)c2=O)C1 (stereo not drawn) the CC50 [16] was 17.4 µM (active) and the CC50 [17] was 67.2 µM (active).
